Experimental findings from patent publication US20250387388A1, “COMPOUND AS TRK INHIBITOR AND/OR RET INHIBITOR AND USE THEREOF” (Medinno Pharmaceutical Technology (Zhuhai) Co., Ltd., priority 2022, published 2025) are described below.

One assay has as its target RET (Homo sapiens (Human), UniProt P07949). The assay is described as follows: Inhibitory activity on RET kinase (HTRF KinEASE-TK). The class given is biochemical. The following applies: ATP 16 μM. From the text: 3) Formulate 2.5× kinase with 1× kinase reaction buffer.
Background: Time-resolved FRET reads energy transfer from a long-lived donor to a nearby acceptor.

A further assay concerns the target TRKA (Homo sapiens (Human), UniProt P04629). The assay is described as follows: Inhibitory activity on TRKA (ADP-Glo Kinase Assay). (In general: ADP-Glo turns the ADP formed in a reaction into a luminescent signal.)
Another assay concerns the target TRKB (Homo sapiens (Human), UniProt Q16620). Description: Inhibitory activity on TRKB (ADP-Glo Kinase Assay).
The target in another assay is TRKC (Homo sapiens (Human), UniProt Q16288). Description: Inhibitory activity on TRKC (ADP-Glo Kinase Assay).
For assay [1], the system named is ovalbumin-induced asthma model in mice. Description: Ovalbumin-induced asthma model in mice. The assay is classed as in vivo, Balb/c mice. The following applies: nasal administration BID 5 days: MDI-1228 3 mg/kg, MDI-1288 3 mg/kg, MDI-1233 1, 3, 10 mg/kg. The method, then: After 7 days of acclimatization, animals were randomly grouped based on their body weight. The experiment was divided into 8 groups, with 8 mice in each group, as detailed in the table below.
• Preparation of Immunogen: Weigh an appropriate amount of OVA, to which an appropriate amount of PBS was added, to achieve a final concentration of 0.1 mg/ml. Then, an equal volume of aluminum adjuvant was added, and the resulting mixture was mixed well, and stored at 4° C., which was prepared before use. • Preparation of Sensitizer (5% OVA): Weigh an appropriate amount of OVA, to which an appropriate amount of PBS was added, to achieve a final concentration of 5%. The resulting mixture was mixed well, and store it at 4° C. for later use, which was prepared before use. • Preparation of Vehicle: Add 200 μl of Tween 80 to 100 ml of saline, and mix it well. […] Mix it well, and store it at 4° C. for later use. […] Mix it well, and store it at 4° C. for later use. […] Mix it well, and store it at 4° C. for later use. The solution was prepared once every three days.
• Immunization: On days 0, 7, 14, and 21, 200 μl of PBS was injected intraperitoneally for the first group, and 200 μl of (10 μg) OVA/aluminum adjuvant emulsion was injected intraperitoneally for groups 2-8. • Sensitization: From days 28 to 32, the first group of animals was exposed to nebulized PBS in a nebulization box for 20 minutes, and the groups 2-8 were exposed to nebulized 5% OVA in a nebulization box for 20 minutes. And then, they were removed. The sensitization was conducted at 12:30 PM daily. • Administration: The medicine was administrated twice a day at 9 AM and 5 PM via nasal drops. Dexamethasone (Dex) was administered by gavage once a day at 9 AM.
Serum IgE: Blood was collected from the orbits of animals after carbon dioxide euthanasia, and plasma was separated and stored at −40 degrees for plasma IgE detection.
Bronchoalveolar Lavage Fluid (BALF) Cell Count: An appropriate amount of foetal bovine serum was weighted and dissolved in PBS to a final concentration of 1%. After orbital blood collection, the trachea was exposed, and a 1 ml syringe needle was replaced with a mouse gavage needle. 0.8 ml of the lavage fluid was aspirated from the syringe and the lungs were lavaged three times. The lavage fluids were collected, and centrifuged at 1000 rpm for 10 minutes, and the supernatant was collected and stored at −40 degrees Celsius. Cells were resuspended with 1 ml of PBS and counted. 100 ul of centrifuged smear was taken and stained with Diff quick and the number of eosinophils, basophils, lymphocytes and macrophages were recorded.
Bronchoalveolar Lavage Fluid IL-5: Bronchoalveolar lavage fluid was collected to detect IL-5.
Pathological scoring criteria were: • A) 0 points: No lymphocyte infiltration; • B) 1 point: Trace lymphocyte infiltration; • C) 2 points: Mild lymphocyte infiltration; • D) 3 points: Moderate lymphocyte infiltration; • E) 4 points: Severe lymphocyte infiltration; • After scoring, the results were calculated and analyzed.

In assay [2] the test system is allergic rhinitis model in mice. The assay is described as follows: Allergic rhinitis model in mice (OVA). The following applies: for Rhinitis behavioral scoring: 7-day treatment, MDI-1233 10 mg/kg, MDI-1228 3 mg/kg, fluticasone propionate positive control. The assay is classed as in vivo, BALB/C mice. The protocol: 42-49 day-old BALB/C mice (Manufacturer: Liaoning Changsheng Biotechnology Co., Ltd., License Number: SCXK(therapeutic)2015-0001), both male and female, were reared under conventional diet, at a temperature of 20 to 26° C., and a humidity of 40% to 70%. Animal grouping and modeling: • 1. Blank control group (no treatment) • 2. Allergic rhinitis group (vehicle treatment: saline containing 0.2% Tween 80) • 3. Allergic rhinitis+compound MDI-1233: 1 mg/kg • 4. Allergic rhinitis+compound MDI-1233: 3 mg/kg • 5. Allergic rhinitis+compound MDI-1233: 10 mg/kg • 6. Allergic rhinitis+compound MDI-1228: 3 mg/kg • 7. Allergic rhinitis+compound MDI-1288: 3 mg/kg • 8. Allergic rhinitis+positive control group (Fluticasone propionate, GlaxoSmithKline, E88D
The preparation of an AR model in mice involved sensitizing and challenging BALB/c mice with ovalbumin (OVA) to simulate an acute symptoms caused by natural exposure to an allergen. The experimental animals were weighed and separated by gender. Sensitization was performed on days 1, 5, 9, and 12. From day 13, a daily challenge was carried out for 7 consecutive days. After the last challenge, behavior of the mice was observed and scored. The sensitization method involved intraperitoneal injection of an OVA (Sigma, A5503-1G) suspension in 50 μg/ml in which the OVA suspension was prepared by dissolving 500 μg of ovalbumin and 50 mg of AL(OH)3 (CAS 21645-51-2) into 10 ml of normal saline, pH 7.4, with 200 μl injected per mouse. […] On day 12, a single nasal challenge with 10% OVA was performed (PBS was used for the control group). Scoring was conducted according to the table below, using a superposition method to calculate the total score. A total score greater than 5 was considered as successful. Subsequent experiments were conducted after the modeling was deemed successful.
From day 13, compound administration and challenge were conducted. The compound administration method involved calculating the nasal drops volume according to the mouse's body weight and group requirements, and dissolving the compounds MDI-1233, MDI-1228, MDI-1288 into normal saline containing 0.2% Tween 80 at specific concentrations. The administration was given 30 minutes before the challenge, twice a day. The positive control treatment involved administering nasal drop once (10 μl per side) 30 minutes before OVA nasal stimulation, twice a day. Thirty minutes after the second drug administration, a 10% OVA challenge was conducted, and the amount of nasal discharge, sneezing, and nose scratching were observed and recorded within 30 minutes after each challenge and then scored. The control group was treated with normal saline nasal drops.
After the rhinitis modeling was completed and the scores were stable, mice of each group were anesthetized and sacrificed after a 20-day scoring. Samples were collected, and peripheral serum was obtained by collecting whole blood, and standing it at room temperature for 1 hour and then centrifuging it to collect the supernatant for ELISA detection; nasal mucosa was taken for HE staining (fixed with 10% formalin); and the supernatant of nasal lavage fluid was taken for ELISA detection.
(1) HE Staining: The tissue was rinsed with running water for several hours, dehydrated through a series of ethanol solutions (70%, 80%, 90%), and then treated with a mixture of pure alcohol and xylene for 15 minutes, followed by xylene I for 15 minutes and xylene I1 for 15 minutes (until transparent). The tissue was then placed in a mixture of xylene and paraffin at a volume ratio of 1:1 for 15 minutes, followed by immersion with paraffin I and paraffin II each for 50-60 minutes. The tissue was embedded in paraffin and sectioned, and the sections were spreaded, dried, dewaxed and hydrated in distilled water. […]

The mark [3] stands for this setting: vs. vehicle (model) group, dexamethasone 1 mg/kg gavage QD.
Where [4] appears, read: nasal drops twice a day, MDI-1288 3 mg/kg.

The structures appear in SMILES notation. Like-named read-outs stand apart in the source and are kept apart here.

TRKA, sequence (P04629 33-796 limits assumed): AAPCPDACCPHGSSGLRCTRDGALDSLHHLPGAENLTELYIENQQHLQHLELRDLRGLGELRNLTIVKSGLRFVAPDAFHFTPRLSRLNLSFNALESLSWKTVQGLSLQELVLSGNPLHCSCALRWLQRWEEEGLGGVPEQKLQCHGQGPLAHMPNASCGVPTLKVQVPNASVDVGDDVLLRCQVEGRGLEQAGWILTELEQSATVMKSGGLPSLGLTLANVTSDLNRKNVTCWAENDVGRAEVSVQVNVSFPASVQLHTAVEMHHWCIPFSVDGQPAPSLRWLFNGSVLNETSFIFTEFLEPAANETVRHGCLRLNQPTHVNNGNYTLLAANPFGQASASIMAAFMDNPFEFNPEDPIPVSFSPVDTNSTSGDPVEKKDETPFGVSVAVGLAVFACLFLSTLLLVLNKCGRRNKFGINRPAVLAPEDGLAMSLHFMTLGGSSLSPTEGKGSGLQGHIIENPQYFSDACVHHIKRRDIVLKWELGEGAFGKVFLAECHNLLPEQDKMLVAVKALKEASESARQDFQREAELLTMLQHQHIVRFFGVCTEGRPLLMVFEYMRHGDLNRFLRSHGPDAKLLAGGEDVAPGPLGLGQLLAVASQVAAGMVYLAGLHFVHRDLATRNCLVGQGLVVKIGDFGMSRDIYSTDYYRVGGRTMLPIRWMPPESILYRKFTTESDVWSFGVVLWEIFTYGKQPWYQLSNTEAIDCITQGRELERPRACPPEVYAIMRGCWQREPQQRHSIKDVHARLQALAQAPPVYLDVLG
TRKB, sequence (Q16620 32-822): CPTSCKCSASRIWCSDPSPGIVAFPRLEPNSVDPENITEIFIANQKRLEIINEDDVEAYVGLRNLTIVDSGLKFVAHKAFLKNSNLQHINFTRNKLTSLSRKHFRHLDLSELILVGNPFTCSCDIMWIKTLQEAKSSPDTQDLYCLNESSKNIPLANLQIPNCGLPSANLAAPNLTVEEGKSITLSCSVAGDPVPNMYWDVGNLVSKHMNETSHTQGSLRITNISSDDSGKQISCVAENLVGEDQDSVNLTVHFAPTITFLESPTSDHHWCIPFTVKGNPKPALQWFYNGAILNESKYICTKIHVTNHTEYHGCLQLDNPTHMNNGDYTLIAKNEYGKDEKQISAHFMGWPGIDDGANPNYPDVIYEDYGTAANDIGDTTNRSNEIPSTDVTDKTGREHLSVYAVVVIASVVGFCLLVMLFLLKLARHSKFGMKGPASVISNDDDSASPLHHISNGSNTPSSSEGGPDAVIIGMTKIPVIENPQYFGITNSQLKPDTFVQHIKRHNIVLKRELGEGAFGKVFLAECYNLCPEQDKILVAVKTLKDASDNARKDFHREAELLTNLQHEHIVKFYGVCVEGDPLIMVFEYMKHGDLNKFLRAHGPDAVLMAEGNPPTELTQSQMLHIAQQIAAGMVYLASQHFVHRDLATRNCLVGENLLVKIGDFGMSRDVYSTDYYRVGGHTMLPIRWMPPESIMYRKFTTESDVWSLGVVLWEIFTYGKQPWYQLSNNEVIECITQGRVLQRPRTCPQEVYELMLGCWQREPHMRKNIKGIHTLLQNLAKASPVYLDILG
RET, sequence (P07949 29-1114): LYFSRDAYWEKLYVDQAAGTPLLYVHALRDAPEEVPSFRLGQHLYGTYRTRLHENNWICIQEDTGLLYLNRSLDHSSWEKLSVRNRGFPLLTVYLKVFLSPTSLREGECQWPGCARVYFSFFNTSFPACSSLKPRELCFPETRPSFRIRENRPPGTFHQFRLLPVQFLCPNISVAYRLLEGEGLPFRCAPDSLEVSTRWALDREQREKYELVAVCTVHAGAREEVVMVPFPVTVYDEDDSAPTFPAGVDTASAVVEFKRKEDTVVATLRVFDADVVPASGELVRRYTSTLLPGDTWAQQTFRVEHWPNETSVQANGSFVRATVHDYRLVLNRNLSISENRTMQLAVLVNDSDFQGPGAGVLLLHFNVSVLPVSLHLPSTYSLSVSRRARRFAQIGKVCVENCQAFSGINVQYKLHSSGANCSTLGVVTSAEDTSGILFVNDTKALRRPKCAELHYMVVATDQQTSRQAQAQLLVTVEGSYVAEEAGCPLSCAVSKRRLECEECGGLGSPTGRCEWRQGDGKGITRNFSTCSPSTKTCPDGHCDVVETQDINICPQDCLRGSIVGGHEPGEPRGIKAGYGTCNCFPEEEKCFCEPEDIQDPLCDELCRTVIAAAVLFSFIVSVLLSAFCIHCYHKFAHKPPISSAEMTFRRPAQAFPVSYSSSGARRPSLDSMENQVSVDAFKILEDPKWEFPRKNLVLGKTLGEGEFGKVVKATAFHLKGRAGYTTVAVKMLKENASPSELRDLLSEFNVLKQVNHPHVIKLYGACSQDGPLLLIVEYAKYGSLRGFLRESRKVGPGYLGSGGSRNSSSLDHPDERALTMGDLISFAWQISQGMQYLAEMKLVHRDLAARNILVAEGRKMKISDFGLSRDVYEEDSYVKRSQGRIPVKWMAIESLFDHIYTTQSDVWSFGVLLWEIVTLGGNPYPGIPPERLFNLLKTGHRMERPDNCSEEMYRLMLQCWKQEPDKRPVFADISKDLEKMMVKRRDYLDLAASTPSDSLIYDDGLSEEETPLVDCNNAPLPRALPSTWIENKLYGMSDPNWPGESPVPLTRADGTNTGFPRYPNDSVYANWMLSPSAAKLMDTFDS
TRKC, sequence (Q16288 32-839): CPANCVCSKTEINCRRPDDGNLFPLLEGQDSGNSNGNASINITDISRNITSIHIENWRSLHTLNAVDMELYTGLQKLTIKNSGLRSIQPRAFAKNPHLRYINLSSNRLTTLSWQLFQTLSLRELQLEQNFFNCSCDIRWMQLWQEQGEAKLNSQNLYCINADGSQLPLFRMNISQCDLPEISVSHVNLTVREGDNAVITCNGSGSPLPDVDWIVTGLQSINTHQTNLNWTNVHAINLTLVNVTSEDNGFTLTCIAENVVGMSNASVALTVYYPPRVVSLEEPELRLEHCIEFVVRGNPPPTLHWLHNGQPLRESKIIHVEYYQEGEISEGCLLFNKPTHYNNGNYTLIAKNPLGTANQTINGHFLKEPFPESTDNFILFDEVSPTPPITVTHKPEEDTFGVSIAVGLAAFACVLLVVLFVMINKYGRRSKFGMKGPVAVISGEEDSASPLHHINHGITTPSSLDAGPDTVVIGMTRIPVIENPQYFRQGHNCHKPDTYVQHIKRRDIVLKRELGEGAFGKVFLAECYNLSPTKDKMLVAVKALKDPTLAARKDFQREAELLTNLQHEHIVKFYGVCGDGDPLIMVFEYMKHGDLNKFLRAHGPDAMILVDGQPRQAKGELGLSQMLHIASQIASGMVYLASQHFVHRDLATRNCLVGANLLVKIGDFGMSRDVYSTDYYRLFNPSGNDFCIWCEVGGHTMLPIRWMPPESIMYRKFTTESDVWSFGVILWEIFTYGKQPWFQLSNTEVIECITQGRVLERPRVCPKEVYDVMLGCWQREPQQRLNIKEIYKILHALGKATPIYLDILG

For the compound `CCc1cc(O)c(F)cc1-c1ccc2c(-c3nc4c([nH]3)CN(C(=O)N3CCN(C)CC3)C4)n[nH]c2c1` [MDI-235, (2-(6-(2-ethyl-5-fluoro-4-hydroxyphenyl)-1H-indazol-3-yl)-4,6-dihydropyrrolo[3,4-d]imidazol-5-(1H)-yl)(4-methylpiperazin-1-yl)ketone], the 50% inhibitory concentration (IC50) (commonly the concentration that gives 50% inhibition) was 0.1 nM at RET, 0.57 nM against TRKA, 1.39 nM at TRKB and 0.27 nM against TRKC.

Take `CCc1cc(O)c(F)cc1-c1ccc2c(-c3nc4c([nH]3)CN(C(=O)N3CCC(O)CC3)C4)n[nH]c2c1` [MDI-245, (2-(6-(2-ethyl-5-fluoro-4-hydroxyphenyl)-1H-indazol-3-yl)-4,6-dihydropyrrolo[3,4-d]imidazol-5(1H)-yl)(4-hydroxylpiperidin-1-yl)ketone]: the half-inhibitory concentration (IC50) against RET came out at 0.99 nM; against TRKA, 0.83 nM; on TRKB it was 3.37 nM; against TRKC it was 0.57 nM.

Turning to `CCNC(=O)N1Cc2nc(-c3n[nH]c4cc(-c5cc(F)c(O)cc5CC)ccc34)[nH]c2C1` [MDI-247, 2-(6-(2-ethyl-5-fluoro-4-hydroxyphenyl)-1H-indazol-3-yl)-N-ethyl-4,6-dihydropyrrolo[3,4-d]imidazol-5-(1H)-carboxamide], the IC50 against RET is 8.36 nM; at TRKA (read-out: TRKA IC50, ATP 5 μM), 10.3 nM; on TRKB (read-out: TRKB IC50, ATP 5 μM) it was 34.2 nM; on TRKC (read-out: TRKC IC50, ATP 5 μM) it was 3.73 nM.

For `CCOC(=O)N1Cc2nc(-c3n[nH]c4cc(-c5cc(F)c(O)cc5CC)ccc34)[nH]c2C1` [MDI-253, Ethyl 2-(6-(2-ethyl-5-fluoro-4-hydroxyphenyl)-1H-indazol-3-yl)-4,6-dihydropyrrolo[3,4-d]imidazol-5(1H)-carboxylate], the half-maximal inhibitory concentration (IC50) was determined as 11.4 nM on TRKA (read-out: TRKA IC50, ATP 5 μM); 98.8 nM at TRKB (read-out: TRKB IC50, ATP 5 μM); 13.1 nM on TRKC (read-out: TRKC IC50, ATP 5 μM).

For `CCc1cc(O)c(F)cc1-c1ccc2c(-c3nc4c([nH]3)CN(C(=O)C3CC3)C4)n[nH]c2c1` [MDI-1233, cyclopropyl (2-(6-(2-ethyl-5-fluoro-4-hydroxyphenyl)-1H-indazol-3-yl)pyrrolo[3,4-d]imidazol-5(1H,4H,6H)-yl)ketone], the IC50 on RET is 4.21 nM; on TRKA (read-out: TRKA IC50, ATP 5 μM), 12.2 nM; at TRKB (read-out: TRKB IC50, ATP 5 μM) it was 4.16 nM; on TRKC (read-out: TRKC IC50, ATP 5 μM), 5.91 nM. Moreover, the “Therapeutic effect on the asthma animal model (lung tissue pathological scoring)” value in assay [1] was “good therapeutic effect”. Also, the “Bronchoalveolar lavage fluid IL-5 expression level” value in assay [1] (setting [3]) is recorded as “could reduce IL-5 expression in all three dosage”. Besides, the “Inflammatory cell count in bronchoalveolar lavage fluid” value in assay [1] (setting [3]) was “could reduce the Inflammatory Cell Count in all three dosage”. Further, the “Lung tissue inflammatory cell infiltration (HE pathology)” value in assay [1] (setting [3]) is listed as “could reduce the lung tissue inflammatory cell infiltration in all three dosage”. In addition, the “Serum IgE expression level” value in assay [1] (setting [3]) was “could reduce IgE expression in all three dosage”. Besides, the “Nasal mucosa pathology (HE staining)” value in assay [2] (MDI-1233 1 mg/kg and 3 mg/kg nasal drops twice a day) was “still accompanied by bleeding, inflammatory cell infiltration, cilia shedding”; in assay [2] (MDI-1233 10 mg/kg nasal drops twice a day), “the nasal mucosal cilia repair effect was significant”. Further, the Rhinitis behavioral scoring entry in assay [2] (setting [4]) is on record as “demonstrated inhibitory effects on the male mouse rhinitis model”.

Take `CCC(=O)O[C@]1(C(=O)SCF)[C@H](C)C[C@H]2[C@@H]3C[C@H](F)C4=CC(=O)C=C[C@]4(C)[C@@]3(F)[C@@H](O)C[C@@]21C` [fluticasone propionate, reference compound]: the “Nasal mucosa pathology (HE staining)” value in assay [2] (MDI-1288 3 mg/kg, fluticasone propionate 10 μl per side, nasal drops twice a day) was “inhibited the progression of rhinitis and promoted repair of cilia on the nasal mucosa”. Moreover, the Rhinitis behavioral scoring result in assay [2] (setting [4]) is on record as “significant effects on inhibiting the rhinitis behavior”.
